Patent US8741867B2, “Retinoid-liposomes for treating fibrosis” (Nitto Denko Corporation, priority 2011, dated 2014)
Where two headings read alike, the source gives them in different places. d = 2'-deoxy (DNA); r = 2'-OH (RNA)

Assays:
293_HSP47-GFP cell line [1] = assay: Cell viability of 293_HSP47-GFP cells treated with siNA (CellTiter-Glo); details: normalized to scrambled siRNA
Procedure: (§2) Cells treated with or without siNA were measured for viability after 72 hours incubation using CellTiter-Glo Luminescent Cell Viability Assay Kit according to the manual (Promega). The readings were normalized to samples treated with scrambled siNA molecules.
(§3) The 293_HSP47-GFP and 293_GP46-GFP cell lines treated with siRNA against hsp47 and gp46 were evaluated for viability using the methods described in Example 2. The cell viability was normalized to cells treated with scrambled siRNA (Ambion).

rat gp46 [2] = assay: Inhibition of gp46 expression by prepared siRNA in NRK cells (western blot); format: cell-based
Procedure: Normal rat kidney cells (NRK cells), which had rat gp46 and were fibroblasts producing collagen, were transfected with 0.1 nM to 50 nM siRNA and cultured for 12 to 48 hours (FIG. 1). The amount of expression of gp46 was checked by the western blot method (FIGS. 2 to 4, upper band corresponding to gp46, lower band corresponding to actin control). All of the siRNAs inhibited the expression of gp46 protein remarkably compared with a vehicle (FIG. 2).

[3] = system: rat fibroblasts (NRK cells); assay: Inhibition of collagen synthesis by siRNA (3H-proline, collagenase-sensitive fraction); format: cell-based; details: siRNA 50 nM, 48 hours, compared with control group
Procedure: In order to examine the amount of collagen synthesized, ^3H-proline was added to the culture supernatant of rat fibroblasts (NRK cells) under the above-mentioned conditions (siRNA concentration 50 nM, time 48 hours), and after transfection the amount of ^3H in secreted protein was examined (FIG. 5). The amount of collagen synthesized was calculated from the ratio of protein secreted in the supernatant to protein degraded by collagenase when culturing gp46siRNA-transfected fibroblasts in the presence of ^3H-proline in accordance with Peterkofsky et al., 1971 Biochemistry 10:988-94. Collagen synthesis ratio=collagenase−sensitive fraction×100(5.4×collagenase−insensitive fraction+collagenase−sensitive fraction)
The collagen synthesis ratio in rat fibroblasts decreased by about 40% compared with a control group (FIG. 6).

human HSP47 = assay: Inhibitory efficiency of siHsp47 in 293_HSP47-GFP reporter cell line (GFP fluorescence); format: cell-based; details: 293_HSP47-GFP cell line, normalized to scrambled siRNA
Source text: (§1) The fluorescent signals were normalized to fluorescent signals from cells treated with scrambled siRNA (Ambion) which served as a control.

rat gp46 [4] = assay: Inhibitory efficiency of siHsp47 in 293_GP46-GFP reporter cell line (GFP fluorescence); format: cell-based; details: 293_GP46-GFP cell line, normalized to scrambled siRNA
Source text: as §1

293_GP46-GFP cell line = format: cell-based, human
Procedure: as §2, §3

hsp47 mRNA = assay: siHsp47 inhibitory effect on hsp47 mRNA by TaqMan qPCR in hTERT cells; format: cell-based, human; details: 72 hours after transfection, normalized to GAPDH
Procedure: In Example 14, the knock down efficiency of siHsp47s in reporter cell lines was evaluated by change in fluorescent signal. To validate the results at the mRNA level, siRNAs targeting endogenous hsp47 were transfected into cells of the human HSC cell line hTERT using Lipofectamine RNAiMAX (Invitrogen) in a reverse transfection manner as described in Example 13
The hsp47 mRNA level was evaluated for knock down efficiency of the various tested siHsp47 siNA molecules. Briefly, mRNA were isolated from hTERT cells after 72 hours after transfection using an RNeasy mini kit (Qiagen). The level of hsp47 mRNA was determined by reverse transcription coupled with quantitative PCR using TaqMan® probes. Briefly, cDNA synthesis was carried out using High-Capacity cDNA Reverse Transcription Kit (ABI) according to the manufacturer's instruction, and subjected to TaqMan Gene Expression Assay (ABI, hsp47). The level of hsp47 mRNA was normalized to the level of GAPDH mRNA according to the manufacturer's instruction (ABI).

collagen I mRNA = assay: Downregulation of collagen I expression by hsp47 siRNA in hTERT cells (TaqMan qPCR); format: cell-based, human; details: 72 hours, normalized to GAPDH and scrambled siNA
Procedure: To determine the effect of siHsp47 on collagen I expression level, collagen I mRNA level in hTERT cells treated with different siRNA against hsp47 was measured. Briefly, hTERT cells were transfected with different siHsp47 as described in Example 13. The cells were lysed after 72 hours and mRNA were isolated using RNeasy mini kit according to the manual (Qiagen). The level of collagen 1 mRNA was determined by reverse transcription coupled with quantitative PCR using TaqMan® probes. Briefly, cDNA synthesis was carried out using High-Capacity cDNA Reverse Transcription Kit (ABI) according to the manual, and subjected to TaqMan Gene Expression Assay (ABI, COL 1A1 assay). The level of collagen I mRNA was normalized to the level of GAPDH mRNA according to the manufacturer's instruction (ABI). The signals were normalized to the signal obtained from cells transfected with scrambled siNA.

293_HSP47-GFP cell line [5] = system: 293_HSP47-GFP cell line
Procedure: as §2, §3

HSP47 protein = assay: siHsp47 knock down effect at the protein level in hTERT cells (western blot); format: cell-based, human; details: hTERT cell lysate
Procedure: The inhibitory effect of different Hsp47 siNA molecules (siHsp47) on hsp47 mRNA expression were validated at the protein level by measuring the HSP47 in hTERT cells transfected with different siHsp47. Transfection of hTERT cells with different siHsp47 were performed as described in Example 13. Transfected hTERT cells were lysed and the cell lysate were clarified by centrifugation. Proteins in the clarified cell lysate were resolved by SDS polyacrylamide gel electrophoresis. The level of HSP47 protein in the cell lysate were determined using an anti-HSP47 antibody (Assay Designs) as the primary antibody, Goat anti-mouse IgG conjugated with HRP (Millipore) as the secondary antibody, and subsequently detected by Supersignal West Pico Chemiluminescence kit (Pierce). Anti-actin antibody (Abcam) was used as a protein loading control.

Substance | cell viability / cytotoxicity (293_HSP47-GFP cell line [1]) | knockdown of human HSP47 (GFP fluorescent signal) (human HSP47) | knockdown of rat GP46 (GFP fluorescent signal) (rat gp46 [4]) | cell viability / cytotoxicity (293_GP46-GFP cell line) | knock down of hsp47 mRNA (remaining mRNA level) (hsp47 mRNA) | collagen I mRNA level (collagen I mRNA) | cell viability / cytotoxicity (293_HSP47-GFP cell line [5]) | level of Hsp47 protein (HSP47 protein) | other results
Hsp47-7: siRNA to human hsp47 cDNA 692-710, 19-mer duplex; SEQ ID NO 57/58 (chain 1 CCGUGGGUGUCAUGAUGAUUU; chain 2 AUCAUCAUGACACCCACGGUU; chemistry not fully specified) | lower | – | – | – | – | – | – | – | –
Sequence A: siRNA for rat gp46, GUUCCACCAUAAGAUGGUAGACAAC (SEQ ID NO: 2728) (chemistry not given here) | – | – | – | – | – | – | – | – | inhibition of gp46 expression, dependence on concentration (rat gp46 [2]; 0.1 nM to 50 nM siRNA): concentration dependent; inhibition of gp46 protein expression (rat gp46 [2]; 50 nM siRNA, 48 hours): about 90%; expression of gp46 protein (western blot) (rat gp46 [2]; 24 hour culturing, examination of optimal sequence, compared with vehicle): strongest effect; decrease of collagen synthesis ratio [3]: about 40%
siHsp47-2: siRNA to human hsp47 cDNA 469-487, 19-mer duplex; sense GAGCACUCCAAGAUCAACUdTdT (SEQ ID NO 21/22) (sense GAGCACUCCAAGAUCAACUTT; antisense AGUUGAUCUUGGAGUGCUCTT; sugars from the 5' end r19 d2, backbone not given here) | – | efficiently knockdown | efficiently knockdown | without substantial cytotoxicity | next most effective | significantly reduced | without substantial cytotoxicity | – | –
siHsp47-2d: siRNA to human hsp47 cDNA 469-493, 25-mer duplex; sense GAGCACUCCAAGAUCAACUUCCGdCdG (SEQ ID NO 25/26) (sense GAGCACUCCAAGAUCAACUUCCGCG; antisense GCGGAAGUUGAUCUUGGAGUGCUCUU; sense: sugars from the 5' end r23 d2, backbone not given here; antisense: chemistry not given here) | – | efficiently knockdown | efficiently knockdown | without substantial cytotoxicity | next most effective | significantly reduced | without substantial cytotoxicity | significant decrease | –
siHsp47-6: siRNA to human hsp47 cDNA 446-464, 19-mer duplex; SEQ ID NO 53/54 (chain 1 GCAGCAAGCAGCACUACAAUU; chain 2 UUGUAGUGCUGCUUGCUGCUU; chemistry not fully specified) | lower | – | – | – | – | – | – | – | –
siHsp47-C: siRNA to human and rat hsp47, 19mer duplex, dTdT overhangs; sense GGACAGGCCUCUACAACUAdTdT (SEQ ID NO 5/6) (sense GGACAGGCCUCUACAACUATT; antisense UAGUUGUAGAGGCCUGUCCTT; sugars from the 5' end r19 d2, backbone not given here) | – | efficiently knockdown | efficiently knockdown | without substantial cytotoxicity | most effective | – | without substantial cytotoxicity | significant decrease | –
